This note sets out measurements from patent publication US7560466B2, “Methods of treating or preventing autoimmune diseases with 2,4-pyrimidinediamine compounds” (Rigel Pharmaceuticals, Inc., priority 2003, dated 2009).

SMILES strings stand for the structures. Where two headings read alike, the source gives them in different places.

Test [1] deals with cultured human mast cells (CHMC), IgE-induced degranulation. Briefly: CHMC low cell density IgE activation: tryptase assay. Type of test: cell-based. In short, it runs like this:
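Tryptase release read fluorogenically (30 min, room temperature) from supernatants of anti-IgE-challenged cultured human mucosal mast cells derived from umbilical cord CD34+ cells, at low density of 1000–1500 cells/well.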

Test [2] relates to cultured human mast cells (CHMC), ionomycin-induced degranulation. The test can be described thus: CHMC low cell density ionomycin activation: tryptase assay. Type of test: cell-based. The following applies: ionomycin activation, read-out: LD Tryptase, CHMC, Iono, 3pt.
[3] abbreviates: CHMC low cell density, 3pt, read-out: LD Tryptase, CHMC, IgE, 3pt.
Where [4] appears, read: CHMC low cell density, 8pt, read-out: LD Tryptase, CHMC, IgE, 8pt.
Where [5] appears, read: low cell density CHMC, 3-point, read-out: LD Tryptase, CHMC, IgE, 3pt.
Setting [6] is: low cell density CHMC, 8-point, read-out: LD Tryptase, CHMC, IgE, 8pt.

Take `COC(=O)Cn1ccc2cc(Nc3ncc(F)c(Nc4ccc5c(c4)NC(=O)C(C)(C)O5)n3)ccc21` [Compound 643, N4-(2,2-Dimethyl-3-oxo-4H-benz[1,4]oxazin-6-yl)-5-fluoro-N2-[1-(methoxycarbonylmethylene)indol-5-yl]-2,4-pyrimidinediamine]: the IC50 is less than 10 µM in test [1] (setting [3]); less than 10 µM in test [1] (setting [4]); more than 10 µM in test [2] (CHMC low cell density, 3pt).
As for `COC(=O)Cn1ccc2cc(Nc3ncc(F)c(Nc4ccc5c(c4)OCCO5)n3)ccc21` [Compound 647, N4-(3,4-Ethylenedioxyphenyl)-5-fluoro-N2-[1-(methoxycarbonylmethylene)indol-5-yl]-2,4-pyrimidinediamine], the IC50 in test [1] (setting [3]) was less than 10 µM; in test [1] (setting [4]) it was less than 10 µM; in test [2] (CHMC low cell density, 3pt), more than 10 µM.
In the case of `CNC(=O)Cn1ccc2ccc(Nc3ncc(F)c(Nc4ccc5c(c4)OCCO5)n3)cc21` [Compound 649, N4-(3,4-Ethylenedioxyphenyl)-5-fluoro-N2-[1-(N-methylamino)carbonylmethyleneindol-6-yl]-2,4-pyrimidinediamine], the IC50 in test [1] (setting [3]) was less than 10 µM; in test [1] (setting [4]), less than 10 µM; in test [2] (CHMC low cell density, 3pt), more than 10 µM.
In the case of `CC1(C)Oc2ccc(Nc3nc(Nc4ccc5c(cnn5CCCNS(C)(=O)=O)c4)ncc3F)nc2NC1=O` [Compound 836, N4-(2,2-Dimethyl-3-oxo-4H-5-pyrid[1,4]oxazin-6-yl)-5-fluoro-N2-[1-[3-(N-methylsulfonylamino)propyl]indazol-5-yl]-2,4-pyrimidinediamine], the IC50 in test [1] (setting [3]) is less than 10 µM; in test [1] (setting [4]), less than 10 µM; in test [2] (CHMC low cell density, 3pt), more than 10 µM.
As for `Cc1cc(Nc2ncc(F)c(Nc3ccc4c(n3)NC(=O)C(C)(C)O4)n2)cc(Cl)c1O` [Compound 996, N2-(3-Chloro-4-hydroxy-5-methylphenyl)-N4-(2,2-dimethyl-3-oxo-4H-5-pyrid[1,4]oxazin-6-yl)-5-fluoro-2,4-pyrimidinediamine], the IC50 in test [1] (setting [3]) was less than 10 µM; in test [1] (setting [4]) it was less than 10 µM; in test [2] (CHMC low cell density, 3pt) it was more than 10 µM.
With `CNC(=O)COc1cccc(Nc2ncc(F)c(Nc3ccc4c(c3)NCC(C)(C)O4)n2)c1` [Compound 1000, N4-(3,4-Dihydro-2,2-dimethyl-4H-benz[1,4]oxazin-6-yl)-5-fluoro-N2-[3-(N-methylamino)carbonylmethyleneoxyphenyl]-2,4-pyrimidinediamine], the IC50 in test [1] (setting [4]) was less than 10 µM; in test [2] (CHMC low cell density, 3pt), less than 10 µM.
In the case of `Cc1ccccc1Nc1ncc(F)c(Nc2ccc3c(n2)NC(=O)C(C)(C)O3)n1` [Compound 1004, N4-(2,2-Dimethyl-3-oxo-4H-5-pyrid[1,4]oxazin-6-yl)-5-fluoro-N2-(2-methylphenyl)-2,4-pyrimidinediamine], the IC50 in test [1] (setting [3]) was less than 10 µM; in test [2] (CHMC low cell density, 3pt), more than 10 µM.
The matching figures for `CN1C(=O)C(C)(C)Oc2ccc(N(C)c3nc(Cl)ncc3F)nc21` [Compound 1005, 2-Chloro-5-fluoro-N4-methyl-N4-(3-oxo-2,2,4-trimethyl-5-pyrid[1,4]oxazin-6-yl)-4-pyrimdinea mine]: less than 10 µM and more than 10 µM.
For `CN1C(=O)C(C)(C)Oc2ccc(Nc3nc(Cl)ncc3F)nc21` [Compound 1006, 2-Chloro-5-fluoro-N4-(3-oxo-2,2,4-trimethyl-5-pyrid[1,4]oxazin-6-yl)-4-pyrimidinea mine] the same measures were more than 10 µM and more than 10 µM.
For `COc1c(C)cc(Nc2ncc(F)c(Nc3ccc4c(n3)N(C)C(=O)C(C)(C)O4)n2)cc1Cl` [Compound 1009, N2-(3-Chloro-4-methoxy-5-methylphenyl)-5-fluoro-N4-(3-oxo-2,2,4-trimethyl-5-pyrid[1,4]oxazin-6-yl)-2,4-pyrimidinediamine], the IC50 is less than 10 µM in test [1] (setting [3]); less than 10 µM in test [1] (setting [4]); more than 10 µM in test [2] (CHMC low cell density, 3pt).
Take `CCOc1c(C)cc(Nc2ncc(F)c(Nc3ccc4c(n3)NC(=O)C(C)(C)O4)n2)cc1Cl` [Compound 1010, N2-(3-Chloro-4-ethoxy-5-methylphenyl)-N4-(2,2-dimethyl-3-oxo-4H-5-pyrid[1,4]oxazin-6-yl)-5-fluoro-2,4-pyrimidinediamine]: the IC50 in test [1] (setting [3]) is less than 10 µM; in test [2] (CHMC low cell density, 3pt), more than 10 µM.
Take `CN1C(=O)C(C)(C)Oc2ccc(Nc3nc(Nc4cccc(-c5ncco5)c4)ncc3F)nc21` [Compound 1012, 5-Fluoro-N2-[3-(oxazol-2-yl)phenyl]-N4-[3-oxo-2,2,4-trimethyl-5-pyrid[1,4]oxazin-6-yl]-2,4-pyrimidinediamine]: the IC50 was less than 10 µM in test [1] (setting [3]); less than 10 µM in test [1] (setting [4]); more than 10 µM in test [2] (CHMC low cell density, 3pt).
As to `CN1C(=O)C(C)(C)Oc2ccc(Nc3nc(Nc4ccc(-c5ncco5)cc4)ncc3F)nc21` [Compound 1013, 5-Fluoro-N2-[4-(oxazol-2-yl)phenyl]-N4-[3-oxo-2,2,4-trimethyl-5-pyrid[1,4]oxazin-6-yl]-2,4-pyrimidinediamine], the IC50 in test [1] (setting [3]) was less than 10 µM; in test [2] (CHMC low cell density, 3pt), more than 10 µM.
Turning to `CCOC(=O)COc1c(C)cc(Nc2ncc(F)c(Nc3ccc4c(c3)NC(=O)C(C)(C)O4)n2)cc1Cl` [Compound 1014, N2-[3-Chloro-4-ethoxycarbonylmethyleneoxy-5-methylphenyl]-N4-(2,2-dimethyl-3-oxo-4H-benz[1,4]oxazin-6-yl)-5-fluoro-2,4-pyrimidinediamine], the IC50 in test [1] (setting [5]) was less than 10 µM; in test [1] (setting [6]), less than 10 µM; in test [2] (low cell density CHMC, 3-point), less than 10 µM.
Regarding `CNC(=O)COc1cccc(Nc2ncc(F)c(Nc3ccc4c(n3)N(C)C(=O)C(C)(C)O4)n2)c1` [Compound 1015, 5-Fluoro-N2-[3-(N-methylamino)carbonylmethyleneoxyphenyl]-N4-[3-oxo-2,2,4-trimethyl-5-pyrid[1,4]oxazin-6-yl]-2,4-pyrimidinediamine], the IC50 in test [1] (setting [5]) is less than 10 µM; in test [1] (setting [6]), less than 10 µM; in test [2] (low cell density CHMC, 3-point), more than 10 µM.
Consider `CN1C(=O)C(C)(C)Oc2ccc(Nc3nc(Nc4cccc(-c5cnco5)c4)ncc3F)nc21` [Compound 1017, 5-Fluoro-N2-[3-(oxazol-5-yl)phenyl]-N4-[3-oxo-2,2,4-trimethyl-5-pyrid[1,4]oxazin-6-yl]-2,4-pyrimidinediamine], for which the IC50 in test [1] (setting [5]) is less than 10 µM; in test [1] (setting [6]), less than 10 µM; in test [2] (low cell density CHMC, 3-point), more than 10 µM.
Turning to `CNC(=O)COc1cccc(Nc2ncc(F)c(N(C)c3ccc4c(c3)NC(=O)C(C)(C)O4)n2)c1` [Compound 1022, N4-(2,2-Dimethyl-3-oxo-4H-benz[1,4]oxazin-6-yl)-5-fluoro-N4-methyl-N2-[3-(N-methylamino)carbonylmethyleneoxyphenyl]-2,4-pyrimidinediamine], the IC50 in test [1] (setting [5]) was less than 10 µM; in test [1] (setting [6]) it was less than 10 µM; in test [2] (low cell density CHMC, 3-point), more than 10 µM.
Turning to `Cc1cc(Nc2ncc(F)c(Nc3ccc4c(n3)NC(=O)C(C)(C)O4)n2)cc(Cl)c1OC1CCCC1` [Compound 1027, N2-(3-Chloro-4-cyclopentyloxy-5-methylphenyl)-N4-(2,2-dimethyl-3-oxo-4H-5-pyrid[1,4]oxazin-6-yl)-5-fluoro-2,4-pyrimidinediamine], the IC50 is less than 10 µM in test [1] (setting [5]) and more than 10 µM in test [2] (low cell density CHMC, 3-point).
`CC1(C)Oc2ccc(Nc3nc(Nc4cccc(-c5ncco5)c4)ncc3F)nc2NC1=O` [Compound 1028, N4-(2,2-Dimethyl-3-oxo-4H-5-pyrid[1,4]oxazin-6-yl)-5-fluoro-N2-[3-(oxazol-2-yl)phenyl]-2,4-pyrimidinediamine]: the IC50 in test [1] (setting [5]) is less than 10 µM; in test [1] (setting [6]) it was less than 10 µM; in test [2] (low cell density CHMC, 3-point), more than 10 µM.
Consider `CC1(C)Oc2ccc(Nc3nc(Nc4cccc(-c5cocn5)c4)ncc3F)nc2NC1=O` [Compound 1029, N4-(2,2-Dimethyl-3-oxo-4H-5-pyrid[1,4]oxazin-6-yl)-5-fluoro-N2-[3-(oxazol-4-yl)phenyl]-2,4-pyrimidinediamine], for which the IC50 is less than 10 µM in test [1] (setting [5]); less than 10 µM in test [1] (setting [6]); more than 10 µM in test [2] (low cell density CHMC, 3-point).
For `CNC(=O)COc1c(C)cc(Nc2ncc(F)c(Nc3ccc4c(n3)NC(=O)C(C)(C)O4)n2)cc1Cl` [Compound 1037, N2-[3-Chloro-5-methyl-4-(N-methylamino)carbonylmethyleneoxyphenyl]-N4-(2,2-dimethyl-3-oxo-4H-5-pyrid[1,4]oxazin-6-yl)-5-fluoro-2,4-pyrimidinediamine], the IC50 was less than 10 µM in test [1] (setting [6]) and more than 10 µM in test [2] (low cell density CHMC, 3-point).
For `CCOC(=O)COc1c(C)cc(Nc2ncc(F)c(Nc3ccc4c(n3)NC(=O)C(C)(C)O4)n2)cc1C` [Compound 1038, N2-(3,5-Dimethyl-4-ethoxycarbonylmethyleneoxyphenyl)-N4-(2,2-dimethyl-3-oxo-4H-5-pyrid[1,4]oxazin-6-yl)-5-fluoro-2,4-pyrimidinediamine], the IC50 is less than 10 µM in test [1] (setting [6]) and more than 10 µM in test [2] (low cell density CHMC, 3-point).
The matching figures for `Cc1cc(Nc2ncc(F)c(Nc3ccc4c(n3)NC(=O)C(C)(C)O4)n2)cc(Cl)c1OC(C)C` [Compound 1040, N2-(3-Chloro-4-isopropoxy-5-methylphenyl)-N4-(2,2-dimethyl-3-oxo-4H-5-pyrid[1,4]oxazin-6-yl)-5-fluoro-2,4-pyrimidinediamine]: more than 10 µM and less than 10 µM.
Take `CNC(=O)COc1c(C)cc(Nc2ncc(F)c(Nc3ccc4c(n3)NC(=O)C(C)(C)O4)n2)cc1C` [Compound 1041, N2-[3,5-Dimethyl-4-(N-methylamino)carbonylmethyleneoxyphenyl]-N4-(2,2-dimethyl-3-oxo-4H-5-pyrid[1,4]oxazin-6-yl)-5-fluoro-2,4-pyrimidinediamine]: the IC50 in test [1] (setting [5]) is less than 10 µM; in test [1] (setting [6]), less than 10 µM; in test [2] (low cell density CHMC, 3-point), less than 10 µM.
